Assay results taken from US4219550A, “Cis- and trans- octahydropyridopyrrolobenzheterocycles” (E. I. Du Pont de Nemours and Company, priority 1978, dated 1980).
Where a name gives a salt, the structure may show the parent alone. Read-outs that look alike come from different tables or passages of the source.

Columns and labels:
[1] = test system: tetrabenazine-induced sedation and depression; test: Mouse tetrabenazine (TBZ) antagonism (ptosis and exploratory activity); assay type: in vivo, Carworth CF1 S female mice
Protocol: This mouse test is predictive of human antidepressant response (Everett, "The Dopa Response Potentiation Test and Its Use in Screening for Antidepressant Drugs", pp 164 in "Antidepressant Drugs" [Proceedings of the First International Symposium], S. Garattini and M. N. G. Dukes, eds., 1967).
Groups of 10 Carworth CF1 S female mice, 18-21 g each, were fasted 1.5 hours and were intubated with antagonist compounds at oral doses of 0, 0.33, 1, 3, 9, 27 and 81 mg/kg in 0.20 ml of 1% Methocel®. The mice were challenged 30 minutes later with tetrabenazine (as the methane-sulfonate), 32 mg/kg intraperitoneally (dissolved in 0.20 ml 0.05 M KCl at pH 2.0). One hour after antagonist (30 minutes after tetrabenazine), the mice were examined for signs of exploratory activity and ptosis (eyelid closure). Normal exploratory activity (relief from sedation) was recorded when a mouse lifted by the tail from a group of 10 in a testing box and placed on a stainless steel testing box lid (12.5"×8" with 0.33" mesh) either turned its head horizontally 30° in both directions or moved to the edge of the screen within 10 seconds after being placed on the screen. Relief from ptosis was recorded when exactly two seconds after placing the mouse facing the observer, lid closure was less than 50% in both eyes.

[2] = test system: conditioned avoidance response; test: Rat conditioned avoidance response (CAR); assay type: in vivo, male Holtzman rats
Protocol: The tranquilizing activity of the compounds of this invention is evidenced by tests conducted in male white rats in which a conditioned avoidance response is interrupted following an oral dose of the drug. This test is predictive of human response to an antipsychotic (tranquilizing) drug. The method of Clark was used (Clark, R., Psychon. Sci. 6, 11, 1966).
The test animals, male Holtzman rats between 90 and 115 grams, were food deprived 18 hours prior to avoidance training. Test drugs were suspended in 0.5% Methocel.
The equipment consisted of a plexiglas pit 5"×5"×9" fitted with a metal floor grid which can be electrified via the output of a shock generator. The top end of the pit opened into a surrounding platform 12"×3-1/2" on all four sides. This pit fitted into a larger plexiglas housing which served both to support the pit and to distribute wires to (a) the electrified floor grid, (b) a sound speaker used for stimulus presentation and (c) a 40 watt incandescent bulb also used for stimulus presentation. The main housing was separate from but attached to a metal frame which supported a noise generator, shock generator, and timing/sequence device. The noise generator was a Grason-Stadler Model 1724, used in the 50 KHz bandwidth with output of -10DB. The two-line shock generator supplied a constant A/C current of 0.19 milliamperes, via constantly scrambled 10 HZ square wave output.
The rats were trained by giving each of them four successive trials 15 to 20 minutes apart with a conditioned stimulus (CS) of a 40-watt incandescent bulb and a white noise plus an unconditioned stimulus (US) of a 0.19 milliampere scrambled shock. Following the four CS+US trials each animal was given an avoidance learning criterion trial in which the CS was presented alone 10 seconds prior to the US.
Rats were dosed orally with compound of the invention or standard drug, 20 rats/dose. Each rat was tested at 60, 120 and 240 minutes after drug.

[3] = test system: tetrabenazine-induced sedation and depression; test: Mouse tetrabenazine (TBZ) antagonism (ptosis and exploratory activity); assay type: in vivo, Carworth CF1 S female mice; conditions: 30 mg/kg, footnote mark stands under PTOSIS
[4] = po, 1 h, read-out: ED50 TBZ ANTAG. EXPLOR.
[5] = po, 1 h, read-out: ED50 TBZ ANTAG. PTOSIS

Compound | ED50 [1, 4] [mg/kg] | ED50 [1, 5] [mg/kg] | ED50 ([2]; po, read-out: ED50 CAR AVOID.) [mg/kg] | ED50 ([2]; po, read-out: ED50 CAR ESCAPE) [mg/kg] | TBZ ANTAG. activity, subcutaneous (footnote *) [3] | ED50 ([1]; oral antagonist, tetrabenazine 32 mg/kg i.p. 30 min later, examined 1 h after antagonist, exploratory activity (relief from sedation), read-out: ED50 TBZ ANTAG. EXPLOR.) [mg/kg] | ED50 ([1]; oral antagonist, tetrabenazine 32 mg/kg i.p. 30 min later, examined 1 h after antagonist, relief from ptosis, read-out: ED50 TBZ ANTAG. PTOSIS) [mg/kg] | ED50 ([2]; oral, 20 rats/dose, tested at 60, 120 and 240 min, avoidance, read-out: ED50 CAR AVOID.) [mg/kg]
CCCCN1CC[C@H]2[C@@H](C1)c1cccc3c1N2CCS3 (relative stereo) [CH2, S, n-C4H9, H, cis] | 14 | 11 | 5.5 | – | – | – | – | –
c1cc2c3c(c1)[C@@H]1CNCC[C@@H]1N3CCO2 (relative stereo) [Example 1, (+)-cis-1,2,6b,7,8,9,10,10a-Octahydropyrido[3', 4': 4,5]pyrrolo[1,2,3,-de][1,4]benzoxazine] | 23 | 1.4 | 2.2 | > 25 | – | – | – | –
Clc1ccc2c3c1[C@@H]1CNCC[C@@H]1N3CCO2 (relative stereo) [Example 2] | 27 | 4.3 | ~23 | > 50 | – | – | – | –
c1cc2c3c(c1)[C@@H]1CN(C4CC4)CC[C@@H]1N3CCO2 (relative stereo) [Example 3] | 24 | 21 | 28 | – | – | – | – | –
c1cc2c3c(c1)[C@@H]1CNCC[C@@H]1N3CCCO2 (relative stereo) [Example 4] | 47 | 1.6 | 2.2 | 14 | – | – | – | –
c1cc2c3c(c1)[C@@H]1CNCC[C@@H]1N3CCS2 (relative stereo) [Example 5] | 0.4 | 3.3 | 1.1 | – | – | – | – | –
CN1CC[C@H]2[C@@H](C1)c1cccc3c1N2CCS3 (relative stereo) [Example 6] | > 81 | 7.2 | 17 | – | – | – | – | –
c1cc2c3c(c1)[C@@H]1CN(C4CC4)CC[C@@H]1N3CCS2 (relative stereo) [Example 7] | 3.3 | 1.1 | – | – | – | – | – | –
c1cc2c3c(c1)[C@@H]1CNCC[C@@H]1N3CCCS2 (relative stereo) [Example 8] | – | – | – | – | active subcutaneously at 30 mg/kg | – | – | –
c1cc2c3c(c1)[C@@H]1CNCC[C@@H]1N3CCCS2 (relative stereo) [Example 8a] | 54 | 6.6 | 2.2 | – | – | – | – | –
c1cc2c3c(c1)[C@@H]1CN(C4CC4)CC[C@@H]1N3CCCS2 (relative stereo) [Example 9] | 68 | 68 | – | – | – | – | – | –
CC(C)N1CC[C@H]2[C@@H](C1)c1cccc3c1N2CCS3 (relative stereo) [Example 11] | 14 | 11 | 5.5 | – | – | – | – | –
c1cc2c3c(c1)[C@H]1CN(C4CC4)CC[C@@H]1N3CCO2 (relative stereo) [Example 17] | 11.2 | 7.5 | – | – | – | – | – | –
CN1CC[C@H]2[C@H](C1)c1cccc3c1N2CCS3 (relative stereo) [Example 18] | 6.5 | 6.5 | 28 | – | – | – | – | –
CN(C)CCC=C1c2ccccc2CCc2ccccc21 [Amitriptyline · HCl, Amitriptyline, reference compound] | – | – | – | – | – | 4.3 | 1.6 | 116
CN(C)CCCN1c2ccccc2Sc2ccc(Cl)cc21 [Chlorpromazine · HCl, Chlorpromazine, reference compound] | > 81 | > 81 | 5.4 | ~34 | – | – | – | –
CC1CN2c3c(cccc3[C@@H]3CNCC[C@@H]32)S1 (stereo partly drawn) [Example 10] | 27 | 23 | 8.5 | ~38 | – | – | – | –
CCN1CC[C@@H]2[C@@H](C1)c1cccc3c1N2CCS3 [Example 16, (+)-trans-8-Ethyl-1,2,6b, 7,8,9,10,10a-octahydropyrido[3',4':4,5]pyrrolo[1,2,3-de][1,4]benzothiazine] | 10.8 | 7.5 | 6.2 | – | – | – | – | –
